This note sets out measurements from PubChem BioAssay (NCI).

Structures are written as SMILES.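 Step 1: Grow cells in 96-well plates. Step 2: Expose to compound for 48 hours at 5 concentrations. Step 3: Interpolate endpoints linearly; if unreached, use highest concentration. GI50 marks 50% less growth. The concentration for full growth arrest is given as TGI.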

Test in all cases: NCI anticancer screen, dose series, 48 h
Assay [1] concerns SK-OV-3 ovarian.
Assay [2] deals with EKVX NSCLC.
The subject of assay [3] is DU-145 prostate.
The subject of assay [4] is IGROV1 ovarian.
Assay [5] deals with HOP-92 NSCLC.
Assay [6] has as its system NCI-H460 lung.
Assay [7] concerns 786-0 renal.
In assay [8] the test system is LOX IMVI melanoma.
Assay [9] deals with SN12C renal.
Assay [10] concerns K-562 leukemia.

As to `COc1cc(O)c(C(=O)/C=C/c2ccc(O)cc2)c(O)c1[C@@H]1C[C@H](CCc2ccc(O)cc2)O[C@H](c2ccc(O)cc2)C1`, the GI50 was 2.82 µM in assay [1]; 4.35 µM in [2]; 3.22 µM in assay [3]; 2.88 µM in assay [4]; 2 µM in [5]; 3 µM in [6]. For the same compound, the GI50 was 2.47 µM in assay [7], 2.93 µM in assay [8] and 4.36 µM in assay [9]. The TGI in [1] turned out to be 7.65 µM; in [2], 15.8 µM; in assay [3], 10.9 µM; in [4], 16.5 µM; in assay [5] it was 5.92 µM; in [6], 7.87 µM. Further, the TGI in assay [7] amounted to 7.1 µM; in [8] it was 8.37 µM; in [9] it was 20.3 µM.
Consider `CCC1CCc2nc3sc(C(=O)Nc4cccc(F)c4)c(N)c3cc2C1` (centres undefined), for which the GI50 was more than 100 µM in assay [1]; more than 100 µM in [3]; more than 100 µM in [4]; more than 100 µM in assay [5]; more than 100 µM in assay [6]; 0.701 µM in assay [7]. Further, the GI50 in assay [8] and in [9] was more than 100 µM throughout. Also, the TGI in assay [1], in assay [3], in assay [4], in [5], in assay [6] and in assay [7] was more than 100 µM throughout. In addition, the TGI in assay [8] and in assay [9] was more than 100 µM each time.
For `COc1cc2c3c(n(CCCI)c(=O)c2cc1OC)-c1cc2c(cc1C3=O)OCO2`, the GI50 in assay [1] was more than 100 µM; in assay [3] it was 2.28 µM; in assay [4], 5.24 µM; in assay [10], 2.27 µM; in assay [5], more than 100 µM; in [6] it was 0.272 µM. The GI50 in assay [7] is 1.37 µM. For the same compound, the TGI in assay [1], in assay [3], in assay [4], in [10], in assay [5] and in [6] was more than 100 µM throughout. In [7], the TGI was more than 100 µM.
In the case of `Cc1cccc2c(=O)c3c(sc12)c(NCCNCCO)nc1ccccc13`, the GI50 in [2] was 1.5 µM; in assay [3] it was 1.68 µM; in assay [4], 1.19 µM; in assay [5], 1.17 µM; in assay [6], 1.19 µM; in assay [7], 1.83 µM. The GI50 was 1.5 µM in assay [8] and 1.54 µM in [9]. Moreover, the TGI in [2] was 2.92 µM; in assay [3], 3.12 µM; in assay [4] it was 2.65 µM; in assay [5] it was 3.05 µM; in assay [6], 2.64 µM; in assay [7], 3.51 µM. Further, the TGI in [8] worked out at 2.92 µM; in assay [9], 3.05 µM.
Turning to `Cc1cc(N(CCNc2ccnc3cc(Cl)ccc23)Cc2ccco2)nc(Cl)n1`, the GI50 was 1.66 µM in assay [1]; 1.61 µM in [2]; 1.99 µM in assay [3]; 1.47 µM in assay [5]; 1.91 µM in assay [6]; 1.57 µM in assay [7]. In addition, the values for the GI50 in assay [8] and in [9] were 1.59 µM and 1.79 µM, respectively. The TGI in assay [1] is 3.13 µM; in assay [2], 3.58 µM; in assay [3], 4.15 µM; in assay [5], 2.94 µM; in assay [6], 3.6 µM; in assay [7], 2.91 µM. Also, the figures for the TGI in assay [8] and in assay [9] were 3.07 µM and 3.44 µM, respectively.
Turning to `CC1OC(OC2C(O[C@H]3CC[C@@]4(C)C(=CC[C@H]5[C@@H]6C[C@@H]7O[C@]8(CC[C@H](C)CN8)[C@@H](C)[C@@H]7[C@@]6(C)CC[C@@H]54)C3)OC(CO)C(O)C2OC2OC(CO)C(O)C(O)C2O)C(O)C(O)C1O` (some centres undefined), the TGI worked out at 30.5 µM in assay [1]; 32.3 µM in [2]; 33.6 µM in [3]; 39.5 µM in assay [4]; 35.5 µM in assay [5]; 31.6 µM in assay [6]. The TGI in [7] came out at 51 µM; in [8], 83.6 µM; in [9], 38.6 µM.
Regarding `COC(=O)CCCC(=O)O`, the TGI in assay [2], in [3], in assay [4], in assay [5], in [6] and in assay [7] was more than 100 µM in each case. The TGI in [8] and in [9] was more than 100 µM each time.
Consider `CN1CCN(c2ccc3nc(-c4ccc5nc(-c6ccc(OCCC(C)(C)C)cc6)[nH]c5c4)[nH]c3c2)CC1`, for which the GI50 is 18 µM in assay [1]; 4.67 µM in [2]; 1.83 µM in assay [3]; 7.69 µM in [4]; 14.3 µM in assay [5]; 2.13 µM in assay [6]. Also, the figures for the GI50 in assay [7] and in [9] were 2.7 µM and 4 µM, respectively. The TGI in assay [1] is 36 µM; in assay [2] it was 21.4 µM; in assay [3], 3.4 µM; in assay [4], 31.6 µM; in assay [5] it was 33.2 µM; in assay [6] it was 3.97 µM. Besides, the TGI is 8.33 µM in [7] and 15.4 µM in assay [9].
Turning to `COc1ccc(OC)c(/C=C(/C)[N+](=O)[O-])c1`, the GI50 in [1] is 6.41 µM; in assay [2], 2.76 µM; in assay [3] it was 1.64 µM; in assay [4] it was 2.97 µM; in assay [10], 2.57 µM; in assay [6] it was 3.41 µM. Besides, the values for the GI50 in assay [7], in assay [8] and in [9] were 1.94 µM, 1.34 µM and 2.17 µM, respectively. Besides, the TGI in assay [1] is 19 µM; in [2] it was 11.5 µM; in assay [3] it was 3.16 µM; in [4], 8.39 µM; in [10] it was more than 100 µM; in assay [6], 12.7 µM. Besides, the results for the TGI in [7], in assay [8] and in assay [9] were 3.48 µM, 3.06 µM and 5.02 µM, respectively.
With `COC(=O)C1=C(C)NC(C)=C(C(=O)OC)C1/C=C(Cl)/C=C/c1ccccc1`, the GI50 was 28.2 µM in [1]; 23.5 µM in [2]; 18.4 µM in [3]; 18.2 µM in assay [4]; 22.8 µM in assay [10]; 18.6 µM in [6]. Further, the GI50 was 25.9 µM in assay [7], 15.1 µM in assay [8] and 19.2 µM in [9]. In addition, the TGI in assay [1] is more than 100 µM; in [2] it was 96.4 µM; in [3] it was 36.7 µM; in assay [4], 43.8 µM; in [10] it was 54.7 µM; in assay [6] it was 45.4 µM. For the same compound, the TGI in [7] is 70.5 µM; in assay [8], 28.8 µM; in assay [9], 41.6 µM.
For `Nc1nc(-c2ccccc2)nc2c1[n+]([O-])c1ccccc1[n+]2[O-]`, the TGI in assay [1], in assay [2], in [3], in assay [4], in [10] and in assay [6] was more than 100 µM each time. For the same compound, the TGI in assay [7], in [8] and in assay [9] was more than 100 µM in each case.
Consider `O=C(/C=C/c1cc([N+](=O)[O-])ccc1Cl)c1ccccc1`, for which the GI50 in assay [1] was 39 µM; in [2], 13 µM; in assay [3] it was 14.7 µM; in [4], 4.6 µM; in assay [10], 6.66 µM; in [6], 14.1 µM. In addition, the values for the GI50 in assay [7], in [8] and in assay [9] were 15.2 µM, 2.6 µM and 19.6 µM, respectively. For the same compound, the TGI in [1] was more than 100 µM; in assay [2], 43.2 µM; in assay [3], 31.2 µM; in assay [4] it was 31.7 µM; in assay [10], more than 100 µM; in assay [6], 33.7 µM. The figures for the TGI in [7], in assay [8] and in [9] were 32 µM, 6.79 µM and 54 µM, respectively.
For the compound `CN(C)c1ccc(Nc2cc(-c3cccc(OC(F)(F)F)c3)nc3ccc(N4CCCC4)cc23)cc1`, the GI50 was 13.1 µM in assay [1]; 2.16 µM in assay [2]; 2.82 µM in assay [3]; 1.56 µM in assay [4]; 1.71 µM in assay [5]; 1.92 µM in [6]. For the same compound, the GI50 in assay [7] was 1.71 µM; in assay [8], 1.73 µM; in assay [9], 1.78 µM. Moreover, the TGI came to 25.7 µM in assay [1]; 6.05 µM in assay [2]; 7.91 µM in assay [3]; 3.06 µM in assay [4]; 3.71 µM in assay [5]; 3.66 µM in assay [6]. Besides, the TGI was found to be 3.24 µM in [7], 3.25 µM in [8] and 3.5 µM in assay [9].
